Reference: patent publication EP3421457B1, “PYRIMIDINE FGFR4 INHIBITORS” (priority 2013, dated 2015)
Structures can show the parent of a compound that is named as a salt.

What follows are molecules tested against T1, FGFR4 (Homo sapiens, UniProt P22455) (assay: IC50 Profiling of Kinase Activity Inhibition (Kinase HotSpot assay)). Conditions: not given.
T1 construct: purchased Invitrogen
Type: biochemical

T1 sequence (P22455 22-802): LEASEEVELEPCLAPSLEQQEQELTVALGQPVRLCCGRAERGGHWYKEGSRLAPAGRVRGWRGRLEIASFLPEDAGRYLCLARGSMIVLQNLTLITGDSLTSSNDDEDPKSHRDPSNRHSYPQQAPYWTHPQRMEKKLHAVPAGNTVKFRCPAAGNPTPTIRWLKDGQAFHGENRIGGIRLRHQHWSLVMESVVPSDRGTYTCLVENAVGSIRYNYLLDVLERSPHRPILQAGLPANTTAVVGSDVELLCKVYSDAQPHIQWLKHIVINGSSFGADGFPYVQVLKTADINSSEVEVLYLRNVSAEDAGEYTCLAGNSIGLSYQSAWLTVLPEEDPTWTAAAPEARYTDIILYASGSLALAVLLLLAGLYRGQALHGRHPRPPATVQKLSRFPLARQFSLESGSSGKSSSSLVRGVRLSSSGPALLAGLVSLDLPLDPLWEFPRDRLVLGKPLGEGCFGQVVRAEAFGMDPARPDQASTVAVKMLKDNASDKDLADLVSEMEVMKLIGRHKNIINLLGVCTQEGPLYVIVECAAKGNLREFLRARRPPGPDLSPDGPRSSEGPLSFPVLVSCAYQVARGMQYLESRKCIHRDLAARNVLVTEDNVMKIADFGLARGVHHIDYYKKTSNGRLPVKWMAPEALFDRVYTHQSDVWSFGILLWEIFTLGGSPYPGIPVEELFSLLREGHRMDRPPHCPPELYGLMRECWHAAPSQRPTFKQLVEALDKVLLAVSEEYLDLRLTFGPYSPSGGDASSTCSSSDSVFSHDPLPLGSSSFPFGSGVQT

Q: For `C=CC(=O)Nc1cc(N2CCN(C(C)=O)CC2)ccc1Nc1cc(N(C)C(=O)Nc2c(Cl)c(OC)cc(OC)c2Cl)ncn1` [Compound 154, N-(5-(4-acetylpiperazin-1-yl)-2-((6-(3-(2,6-dichloro-3,5-dimethoxyphenyl)-1-methylureido)pyrimidin-4-yl)amino)phenyl)acrylamide], which IC50 is on record?
A: Its IC50 is under 1 nM.

Same assay, conditions: Table 1

Q: For `C=CC(=O)Nc1cc(C2CCN(C)CC2)ccc1Nc1cc(N(C)C(=O)Nc2c(Cl)c(OC)cc(OC)c2Cl)ncn1` [Compound 112, N-(2-(6-(3-(2,6-dichloro-3,5-dimethoxyphenyl)-1-methylureido)pyrimidin-4-ylamino)-5-(1-methylpiperidin-4-yl)phenyl)acrylamide], which IC50 is on record?
A: The IC50 was under 1 nM.

Q: With `C#CC(=O)Nc1ccccc1Nc1cc(N(C)C(=O)Nc2c(Cl)c(OC)cc(OC)c2Cl)ncn1` [Compound 114, N-(2-(6-(3-(2,6-dichloro-3,5-dimethoxyphenyl)-1-methylureido)pyrimidin-4-ylamino)phenyl)propiolamide] as the molecule, how does the IC50 read?
A: The IC50 was under 1 nM.

Q: How did the IC50 turn out when `C=CC(=O)Nc1ccccc1Nc1cc(N(CCOC)C(=O)Nc2c(Cl)c(OC)cc(OC)c2Cl)ncn1` [Compound 116, N-(2-{6-[3-(2,6-Dichloro-3,5-dimethoxy-phenyl)-1-(2-methoxy-ethyl)-ureido]-pyrimidin-4-ylamino}-phenyl)-acrylamide] was run?
A: The IC50 was 4 nM.

Q: With `C=CC(=O)Nc1ccccc1Nc1cc(N(CCCN2CCN(C)CC2)C(=O)Nc2c(Cl)c(OC)cc(OC)c2Cl)ncn1` [Compound 121, N-[2-(6-{3-(2,6-Dichloro-3,5-dimethoxy-phenyl)-1-[3-(4-methyl-piperazin-1-yl)-propyl]-ureido}-pyrimidin-4-ylamino)-phenyl]-acrylamide] as the molecule, how does the IC50 read?
A: The IC50 was under 1 nM.

Q: Which IC50 does the source give for `C=CC(=O)Nc1cc(N2C[C@@H](C)N[C@@H](C)C2)ccc1Nc1cc(N(C)C(=O)Nc2c(Cl)c(OC)cc(OC)c2Cl)ncn1` [Compound 124, N-[2-{6-[3-(2,6-Dichloro-3,5-dimethoxy-phenyl)-1-methyl-ureido]-pyrimidin-4-ylamino}-5-(3,5-dimethyl-piperazin-1-yl)-phenyl]-acrylamide] here?
A: The IC50 was under 1 nM.

Q: Which IC50 does the source give for `C=CC(=O)Nc1cc(N2CCN(S(C)(=O)=O)CC2)ccc1Nc1cc(N(C)C(=O)Nc2c(Cl)c(OC)cc(OC)c2Cl)ncn1` [Compound 125, N-[2-{6-[3-(2,6-Dichloro-3,5-dimethoxy-phenyl)-1-methyl-ureido]-pyrimidin-4-ylamino}-5-(4-methanesulfonyl-piperazin-1-yl)-phenyl]-acrylamide] here?
A: Its IC50 is under 1 nM.

Q: Which IC50 does the source give for `C=CC(=O)Nc1ccccc1Nc1cc(N(Cc2ccccc2)C(=O)Nc2c(Cl)c(OC)cc(OC)c2Cl)ncn1` [Compound 130, N-(2-{6-[1-Benzyl-3-(2,6-dichloro-3,5-dimethoxy-phenyl)-ureido]-pyrimidin-4-ylamino}-phenyl)-acrylamide] here?
A: Its IC50 is 2 nM.

Q: How did the IC50 turn out when `C=CC(=O)Nc1ccccc1Nc1cc(N(Cc2ccccn2)C(=O)Nc2c(Cl)c(OC)cc(OC)c2Cl)ncn1` [Compound 131, N-(2-{6-[3-(2,6-Dichloro-3,5-dimethoxy-phenyl)-1-pyridin-2-ylmethyl-ureido]-pyrimidin-4-ylamino}-phenyl)-acrylamide] was run?
A: Its IC50 is under 1 nM.

Q: `C=CC(=O)Nc1ccccc1Nc1cc(N(Cc2ccncc2)C(=O)Nc2c(Cl)c(OC)cc(OC)c2Cl)ncn1` [Compound 132] was tested. Which IC50 did it give?
A: Its IC50 is under 1 nM.

Q: For `C=CC(=O)Nc1cc(N2CCN(CC)CC2)ccc1Nc1cc(N(C)C(=O)Nc2c(Cl)cccc2Cl)ncn1` [Compound 140, N-(2-((6-(3-(2,6-dichlorophenyl)-1-methylureido)pyrimidin-4-yl)amino)-5-(4-ethylpiperazin-1-yl)phenyl)acrylamide], which IC50 is on record?
A: The IC50 was under 1 nM.

Q: Which IC50 does the source give for `C=CC(=O)Nc1cc(N2CCN(CC)CC2)ccc1Nc1cc(N(C)C(=O)Nc2cc(OC)cc(OC)c2Cl)ncn1` [Compound 141, N-(2-((6-(3-(2-chloro-3,5-dimethoxyphenyl)-1-methylureido)pyrimidin-4-yl)amino)-5-(4-ethylpiperazin-1-yl)phenyl)acrylamide] here?
A: The IC50 was 2 nM.

Q: For `C=CC(=O)Nc1cc(N2CCN(CC)CC2)ccc1Nc1cc(N(C)C(=O)Nc2c(F)c(OC)cc(OC)c2F)ncn1` [Compound 143], which IC50 is on record?
A: The IC50 was 10 nM.

Q: Which IC50 does the source give for `C=CC(=O)Nc1cc(N2CCN(CC)CC2)ccc1Nc1cc(N(C)C(=O)Nc2c(F)c(OC)cc(OC)c2Cl)ncn1` [Compound 144, N-(2-((6-(3-(2-chloro-6-fluoro-3,5-dimethoxyphenyl)-1-methylureido)pyrimidin-4-yl)amino)-5-(4-ethylpiperazin-1-yl)phenyl)acrylamide] here?
A: Its IC50 is under 1 nM.

Q: For `C=CC(=O)Nc1cc(COC)ccc1Nc1cc(N(C)C(=O)Nc2c(Cl)c(OC)cc(OC)c2Cl)ncn1` [Compound 147, N-(2-((6-(3-(2,6-dichloro-3,5-dimethoxyphenyl)-l-methylureido)pyrimidin-4-yl)amino)-5-(methoxymethyl)phenyl)acrylamide], which IC50 is on record?
A: Its IC50 is under 1 nM.

Q: Which IC50 does the source give for `C=CC(=O)Nc1cc(C(=O)N(C)C)ccc1Nc1cc(N(C)C(=O)Nc2c(Cl)c(OC)cc(OC)c2Cl)ncn1` [Compound 149, 3-acrylamido-4-((6-(3-(2,6-dichloro-3,5-dimethoxyphenyl)-1-methylureido)pyrimidin-4-yl)amino)-N,N-dimethylbenzamide] here?
A: Its IC50 is under 1 nM.

Q: `C=CC(=O)Nc1cc(C(=O)N2CCN(CC)CC2)ccc1Nc1cc(N(C)C(=O)Nc2c(Cl)c(OC)cc(OC)c2Cl)ncn1` [Compound 150, N-(2-((6-(3-(2,6-dichloro-3,5-dimethoxyphenyl)-1-methylureido)pyrimidin-4-yl)amino)-5-(4-ethylpiperazine-1-carbonyl)phenyl)acrylamide] was tested. Which IC50 did it give?
A: The IC50 was under 1 nM.

Q: `C=CC(=O)N(C)c1cc(N2CCN(CC)CC2)ccc1Nc1cc(N(C)C(=O)Nc2c(Cl)c(OC)cc(OC)c2Cl)ncn1` [Compound 152] was tested. Which IC50 did it give?
A: The IC50 was 14 nM.

Q: For `C=CC(=O)Nc1cc(C(C)OC)ccc1Nc1cc(N(C)C(=O)Nc2c(Cl)c(OC)cc(OC)c2Cl)ncn1` (stereo not drawn) [Compound 155, N-(2-((6-(3-(2,6-dichloro-3,5-dimethoxyphenyl)-1-methylureido)pyrimidin-4-yl)amino)-5-(1-methoxyethyl)phenyl)acrylamide], which IC50 is on record?
A: Its IC50 is under 1 nM.

Q: `C=CC(=O)Nc1cc(C(C)O)ccc1Nc1cc(N(C)C(=O)Nc2c(Cl)c(OC)cc(OC)c2Cl)ncn1` (stereo not drawn) [Compound 156, N-(2-((6-(3-(2,6-dichloro-3,5-dimethoxyphenyl)-1-methylureido)pyrimidin-4-yl)amino)-5-(1-hydroxyethyl)phenyl) acrylamide] was tested. Which IC50 did it give?
A: The IC50 was under 1 nM.

Q: How did the IC50 turn out when `C=CC(=O)Nc1cc(N(C)CCO)ccc1Nc1cc(N(C)C(=O)Nc2c(Cl)c(OC)cc(OC)c2Cl)ncn1` [Compound 158, N-(2-((6-(3-(2,6-dichloro-3,5-dimethoxyphenyl)-1-methylureido)pyrimidin-4-yl)amino)-5-((2-hydroxyethyl)(methyl)amino)phenyl)acrylamide] was run?
A: Its IC50 is under 1 nM.

Q: `C=CC(=O)Nc1cc(N2CCN(C)CC2)ccc1Nc1cc(N(C)C(=O)Nc2c(Cl)c(OC)cc(OC)c2Cl)ncn1` [Compound 159] was tested. Which IC50 did it give?
A: The IC50 was under 1 nM.

Q: Which IC50 does the source give for `C=CC(=O)Nc1cc(N2CCN(CCN)CC2)ccc1Nc1cc(N(C)C(=O)Nc2c(Cl)c(OC)cc(OC)c2Cl)ncn1` [Compound 161, N-(5-(4-(2-aminoethyl)piperazin-1-yl)-2-((6-(3-(2,6-dichloro-3,5-dimethoxyphenyl)-1-methylureido)pyrimidin-4-yl)amino)phenyl)acrylamide 2 TFA salt] here?
A: Its IC50 is under 1 nM.

Q: Which IC50 does the source give for `C=CC(=O)Nc1cc(OCCO)ccc1Nc1cc(N(C)C(=O)Nc2c(Cl)c(OC)cc(OC)c2Cl)ncn1` [Compound 164, 2,2,2-trifluoroacetate] here?
A: The IC50 was under 1 nM.
